Entries after “also recorded” stand apart in the source; their conditions may differ.
Tests used:
[1] = tested on: Male Sprague-Dawley rats; assay: Example 1: dexamethasone-treated rats infused with saline, rhGH or rhIGF-I; body weight gain and nitrogen retention; type: in vivo, rat; conditions: for Retention of nitrogen (nitrogen balance): 8 days infusion with Dex, rhIGF-I 500 per day vs saline or rhGH
Experimental: On day zero the rats were anaesthetized intraperitoneally with 0.4 ml per 100 g body weight of a mixture of Rompun (20 mg·ml^-1), Ketalar (50 mg·ml^-1) and Saline (0.9%) in 1:2:3 volume proportions. The hair on the back of the rats was shaved off and the exposed skin carefully washed with 0.05% chlorhexidine (Pharmacia, Stockholm, Sweden) and 0.4% jodopax (Molnlycke, Goteborg, Sweden), both being diluted in 70% alcohol. Two mutually parallel incisions, each of 15 mm in length, were then made along the dorsal midline. The incisions penetrated the epidermis, dermis and subcutaneous muscle but left the deep fascia intact. Two subcutaneous pockets were made on both sides of the incisions by separating the subcutaneous muscle from the deep fascia. One (Exp. I) or two (Exp. 2) mini-pumps were implanted in each pocket. The wounds were closed with sutures 4-0 Johnson & Johnson). Osmotic mini-pumps (Alzet 2001, Alza Corporation, Palo Alto, USA) releasing 1 μl·h^-1 for 8 days were used for continuous delivery of hormones and Dex to the animals. The pumps were filled to a volume of 0.22 ml with solutions of rhGH (14.4 mg·ml^-1, Genotropin®, Pharmacia), rhIGF-I (20 mg·ml^-1, Igef®, Pharmacia, Kabi Peptide Hormones, Stockholm, Sweden), insulin (1.57 mg/ml, Actrapid®, Novo, Copenhagen, Denmark), Dex (1.04 mg·ml^-1, Decadron, Merck Sharp & Dohme International, […], USA) or Saline (0.9%). Two (Example 1) or four (Example 2) pumps combined as described above were implanted in each rat. Implantation of the pumps was performed under strictly aseptic conditions. Total feed intake was registered throughout the full 8 day experimental period. Urine and faeces were collected daily, pooled and kept at -20° C. until analysed. Excreta was collected by housing the animals in individual metabolism cages that were specially designed for the separation of urine and faeces. In order to inhibit urease-activity in the urine, 1 ml of 5% sulphuric acid was pipetted every morning in the collection vessels. The 24 hour collections of urine were pooled individually for each treatment period and immediately frozen after the collection. Similarly, the samples of faeces were also pooled individually for each treatment period and kept frozen (-20° C.) until analysis. Urea in serum was determined spectrophotometrically by using the Urea UV Uni-Kit II (Roche) with an autoanalyzer (Cobas Mira, Roche Co, Basel, Switzerland). Urea values were expressed in mmol/l. The total nitrogen content in urine was determined with the aid of the Antek Pyro-Chemilumicence Nitrogen System. The apparatus used comprised the […] nitrogen analyser with Liquid Auto Sampler 736-2 and a pyrolysis tube with a ceramic […] Instruments Inc., Houston, Tex., U.S.A.). The frozen urinary samples were thawed and diluted 1:100 with 0.1 M HCl and then analysed. The urinary nitrogen values were then calculated as mg nitrogen excreted. Total nitrogen in faeces was determined by an established Kjeldahl method (Kjeltec System, Tecator AB, Halsingborg, Sweden). The frozen faecal samples were thawed and dried in an oven at 60° C. overnight. The weight of the dried sample was noted and the sample then ground. 0.20 g of the milled faecal sample was mixed in a Kjeldahl digestion tube with 10.0 ml of concentrated sulphuric acid. 2.0 ml of a 30% solution of H2 O2 (30% Perhydrol, Merck, Darmstadt, Germany) was added and mixed carefully. One catalyst tablet (Kjeltabs C A, Thompson & Capper, Runcom, Cheshire, UK) was added to each sample. The mixture was digested at 380° C. for at least one hour or until complete bleaching of the sample was achieved. […] The faecal nitrogen values were calculated as mg nitrogen excreted. Data were subjected to a one-way analysis of variance in which the effect of treatment was considered the prime source of variation. Calculations were executed by the GLM procedure of the SAS program (SAS 1985). […]

[2] = tested on: Male Sprague-Dawley rats; assay: Example 2: dexamethasone-treated rats infused with insulin, rhGH, rhIGF-I and combinations; feed intake, nitrogen digestion and retention, serum urea; type: in vivo, rat; conditions: for Feed intake / feed consumption (in words) / Nitrogen balance / nitrogen wasting induced by dexamethasone (in words) / Relative nitrogen retention (retained N/digested N x 100): 8 days infusion; for Nitrogen balance / nitrogen wasting induced by dexamethasone (in words): Dex 26 ug/day with or without peptides; for Relative nitrogen retention (retained N/digested N x 100): Dex 26 ug/day with peptides: insulin 39, rhGH 360, rhIGF-I 500 ug/day, mean, pooled SE
Experimental: On day zero the rats were anaesthetized intraperitoneally with 0.4 ml per 100 g body weight of a mixture of Rompun (20 mg·ml^-1), Ketalar (50 mg·ml^-1) and Saline (0.9%) in 1:2:3 volume proportions. The hair on the back of the rats was shaved off and the exposed skin carefully washed with 0.05% chlorhexidine (Pharmacia, Stockholm, Sweden) and 0.4% jodopax (Molnlycke, Goteborg, Sweden), both being diluted in 70% alcohol.
Two mutually parallel incisions, each of 15 mm in length, were then made along the dorsal midline. The incisions penetrated the epidermis, dermis and subcutaneous muscle but left the deep fascia intact. Two subcutaneous pockets were made on both sides of the incisions by separating the subcutaneous muscle from the deep fascia. One (Exp. I) or two (Exp. 2) mini-pumps were implanted in each pocket. The wounds were closed with sutures 4-0 Johnson & Johnson).
Osmotic mini-pumps (Alzet 2001, Alza Corporation, Palo Alto, USA) releasing 1 μl·h^-1 for 8 days were used for continuous delivery of hormones and Dex to the animals. The pumps were filled to a volume of 0.22 ml with solutions of rhGH (14.4 mg·ml^-1, Genotropin®, Pharmacia), rhIGF-I (20 mg·ml^-1, Igef®, Pharmacia, Kabi Peptide Hormones, Stockholm, Sweden), insulin (1.57 mg/ml, Actrapid®, Novo, Copenhagen, Denmark), Dex (1.04 mg·ml^-1, Decadron, Merck Sharp & Dohme International, Rathway, USA) or Saline (0.9%). Two (Example 1) or four (Example 2) pumps combined as described above were implanted in each rat. Implantation of the pumps was performed under strictly aseptic conditions.
Total feed intake was registered throughout the full 8 day experimental period. Urine and faeces were collected daily, pooled and kept at -20° C. until analysed. Excreta was collected by housing the animals in individual metabolism cages that were specially designed for the separation of urine and faeces. In order to inhibit urease-activity in the urine, 1 ml of 5% sulphuric acid was pipetted every morning in the collection vessels. The 24 hour collections of urine were pooled individually for each treatment period and immediately frozen after the collection. Similarly, the samples of faeces were also pooled individually for each treatment period and kept frozen (-20° C.) until analysis.
Blood samples were taken on day zero and on the last day of the experiment. During anaesthesia, blood was withdrawn quickly from the orbital plexus by using a glass capillary. On each sampling occasion 0.75 ml blood was taken 5 from each animal. One third (0.25 ml) of the blood sample was collected in a microtainer tube containing EDTA (Beckton and Dickinson) for analysis of glucose. Serum was prepared from the remaining blood sample (0.5 ml) in accordance with standard methods and analysed for urea.
Urea in serum was determined spectrophotometrically by using the Urea UV Uni-Kit II (Roche) with an autoanalyzer (Cobas Mira, Roche Co, Basel, Switzerland). Urea values were expressed in mmol/l. The total nitrogen content in urine was determined with the aid of the Antek Pyro-Chemilumicence Nitrogen System. The apparatus used comprised the Antek 7000N nitrogen analyser with Liquid Auto Sampler 736-2 and a pyrolysis tube with a ceramic liner (Antek Instruments Inc., Houston, Tex., U.S.A.). The frozen urinary samples were thawed and diluted 1:100 with 0.1 M HCl and then analysed. The urinary nitrogen values were then calculated as mg nitrogen excreted.
Total nitrogen in faeces was determined by an established Kjeldahl method (Kjeltec System, Tecator AB, Halsingborg, Sweden). The frozen faecal samples were thawed and dried in an oven at 60° C. overnight. The weight of the dried sample was noted and the sample then ground. 0.20 g of the milled faecal sample was mixed in a Kjeldahl digestion tube with 10.0 ml of concentrated sulphuric acid. 2.0 ml of a 30% solution of H2 O2 (30% Perhydrol, Merck, Darmstadt, Germany) was added and mixed carefully.

[3] = 8 days s.c. mini-pump infusion, at every Dex dose (26, 13 or 6.5 per day), rhGH 360, rhIGF-I 500 per day, vs saline

| Compound | Body weight gain [1, 3] | Feed intake / feed consumption (in words) [2] | Nitrogen balance / nitrogen wasting induced by dexamethasone (in words) [2] | Relative nitrogen retention (retained N/digested N x 100) [2] | Reduction of feed intake ([2]; Dex 26 per day, 8 days) | Retention of nitrogen (nitrogen balance) [1] | Body weight gain ([1]; 8 days infusion, at the medium and high Dex infusion dose) | Nitrogen balance / nitrogen wasting induced by dexamethasone (in words) ([2]; listed as GH) |
| --- | --- | --- | --- | --- | --- | --- | --- | --- |
| C[C@@H]1C[C@H]2[C@@H]3CCC4=CC(=O)C=C[C@]4(C)[C@@]3(F)[C@@H](O)C[C@]2(C)[C@@]1(O)C(=O)CO [Dex, dexamethasone, reference compound] | general decrease with increased Dex dose | generally decreased feed intake | decrease the nitrogen balance dramatically | 7.2% | approximately 20% |  |  |  |
| insulin: insulin (Actrapid, Novo) |  |  | without effect | 11.9% |  |  |  |  |
| rhGH: recombinant human growth hormone (Genotropin, Pharmacia) | the opposite effect |  | not found to counteract the nitrogen wasting induced by dexamethasone | 3.8% |  | followed the same pattern | negative values for body weight gain | without effect |
| rhIGF-I: recombinant human insulin-like growth factor I (Igef, Pharmacia) | significantly (p<0.05) higher weight gain in comparison with saline; also recorded: significantly (p<0.05) increased | slightly stimulated feed consumption | decreased significantly the wasting of nitrogen induced by dexamethasone | 23.0% |  | significantly (p<0.05) higher; also recorded: followed the same pattern |  |  |

Source: patent US5994303A, “Use of insulin and IGF-I” (Chiron Corporation, priority 1994, dated 1999)
